Source: patent US11180504B2 (ORCHID PHARMA LTD., priority 2016, dated 2021)
Values after ≈ are worked out from the molar mass of the structure shown.

What was measured:
[1] = system: methicillin-sensitive Staphylococcus aureus; assay: MIC by broth micro-dilution (CLSI), methicillin-sensitive S. aureus; format: cell-based; details: Staphylococcus aureus, ATCC 29213 / MSSA, MSSA S. aureus ATCC29213; read-out: MIC
[2] = system: carbapenem sensitive Escherichia coli; assay: MIC by broth micro-dilution (CLSI), carbapenem sensitive E. coli; format: cell-based; details: Escherichia coli, ATCC25922, ESBL −ve E. coli ATCC25922; read-out: MIC
[3] = system: carbapenemase producing K. pneumoniae; assay: MIC by broth micro-dilution (CLSI), carbapenemase producing K. pneumoniae; format: cell-based, Klebsiella pneumoniae; details: Klebsiella pneumoniae, ATCCBAA1705, KPC-2 K. pneumoniae ATCC BAA-1705; read-out: MIC
[4] = system: carbapenem sensitive Pseudomonas aeruginosa; assay: MIC by broth micro-dilution (CLSI), carbapenem sensitive P. aeruginosa; format: cell-based; details: Pseudomonas aeruginosa, ATCC27853, Meropenem susceptible P. aeruginosa ATCC27853; read-out: MIC

SMILES | MIC [1] [µg/mL] | MIC [2] [µg/mL] | MIC [3] [µg/mL] | MIC [4] [µg/mL]
C[C@@H](NC(=O)Cn1cnnn1)[C@H]1C(=O)N2C(C(=O)O)=C(S[C@@H]3CN[C@H](C(=O)N4CC[C@@H](NC(=N)N)C4)C3)[C@H](C)[C@H]12 [Example 399, (4R,5S,6R)-6-((R)-1-(2-(1H-tetrazol-1-yl)acetamido)ethyl)-3-((3S,5S)-5-((R)-3-guanidinopyrrolidine-1-carbonyl)pyrrolidin-3-ylthio)-4-methyl-7-oxo-1-azabicyclo[3.2.0]hept-2-ene-2-carboxylic acid] | 2 (≈ 3.47 µM) | 0.125 (≈ 0.217 µM) | 2 (≈ 3.47 µM) | 8 (≈ 13.9 µM)
C[C@@H](NC(=O)Cn1cnnn1)[C@H]1C(=O)N2C(C(=O)O)=C(S[C@@H]3CN[C@H](C(=O)N4C[C@@H](N)[C@@H](O)C4)C3)[C@H](C)[C@H]12 [Example 400, (4R,5S,6R)-6-((R)-1-(2-(1H-tetrazol-1-yl)acetamido)ethyl)-3-((3S,5S)-5-((3R,4S)-3-amino-4-hydroxypyrrolidine-1-carbonyl)pyrrolidin-3-ylthio)-4-methyl-7-oxo-1-azabicyclo[3.2.0]hept-2-ene-2-carboxylic acid] | 4 (≈ 7.28 µM) | 0.125 (≈ 0.227 µM) | 1 (≈ 1.82 µM) | 1 (≈ 1.82 µM)
C[C@@H](NC(=O)Cn1cnnn1)[C@H]1C(=O)N2C(C(=O)O)=C(S[C@@H]3CN[C@H](C(=O)N4CC[C@@H](NCCN)C4)C3)[C@H](C)[C@H]12 [Example 401, (4R,5S,6R)-6-((R)-1-(2-(1H-tetrazol-1-yl)acetamido)ethyl)-3-((3S,5S)-5-((R)-3-(2-aminoethylamino)pyrrolidine-1-carbonyl)pyrrolidin-3-ylthio)-4-methyl-7-oxo-1-azabicyclo[3.2.0]hept-2-ene-2-carboxylic acid] | 8 (≈ 13.9 µM) | 0.5 (≈ 0.867 µM) | 2 (≈ 3.47 µM) | 2 (≈ 3.47 µM)
C[C@@H](NC(=O)Cn1cnnn1)[C@H]1C(=O)N2C(C(=O)O)=C(S[C@@H]3CN[C@H](C(=O)Nc4ccncc4)C3)[C@H](C)[C@H]12 [Example 402, (4R,5S,6R)-6-((R)-1-(2-(1H-tetrazol-1-yl)acetamido)ethyl)-4-methyl-7-oxo-3-((3S,5S)-5-(pyridin-4-ylcarbamoyl)pyrrolidin-3-ylthio)-1-azabicyclo[3.2.0]hept-2-ene-2-carboxylic acid] | 1 (≈ 1.85 µM) | 0.06 (≈ 0.111 µM) | 1 (≈ 1.85 µM) | 32 (≈ 59.1 µM)
C[C@@H](NC(=O)Cn1nnnc1C(=O)O)[C@H]1C(=O)N2C(C(=O)O)=C(S[C@@H]3CN[C@H](C(=O)N4CC[C@@H](N)C4)C3)[C@H](C)[C@H]12 [Example 403, (4R,5S,6R)-3-((3S,5S)-5-((R)-3-aminopyrrolidine-1-carbonyl)pyrrolidin-3-ylthio)-6-((R)-1-(2-(5-carboxy-1H-tetrazol-1-yl)acetamido)ethyl)-4-methyl-7-oxo-1-azabicyclo[3.2.0]hept-2-ene-2-carboxylic acid] | 4 (≈ 6.92 µM) | 0.5 (≈ 0.866 µM) | 8 (≈ 13.8 µM) | 16 (≈ 27.7 µM)
C[C@@H](NC(=O)Cn1cnnn1)[C@H]1C(=O)N2C(C(=O)O)=C(S[C@@H]3CN[C@H](C(=O)N4CCC(CN)CC4)C3)[C@H](C)[C@H]12 [Example 404, (4R,5S,6R)-6-((R)-1-(2-(1H-tetrazol-1-yl)acetamido)ethyl)-3-((3S,5S)-5-(4-(aminomethyl)piperidine-1-carbanoyl)pyrrolidin-3-ylthio)-4-methyl-7-oxo-1-azabicyclo[3.2.0]hept-2-ene-2-carboxylic acid] | 1 (≈ 1.78 µM) | 0.25 (≈ 0.445 µM) | 0.5 (≈ 0.89 µM) | 1 (≈ 1.78 µM)
C[C@@H](NC(=O)Cn1cnnn1)[C@H]1C(=O)N2C(C(=O)O)=C(S[C@@H]3CN[C@H](C(=O)N4CC(C)(N)C4)C3)[C@H](C)[C@H]12 [Example 405, (4R,5S,6R)-6-((R)-1-(2-(1H-tetrazol-1-yl)acetamido)ethyl)-3-((3S,5S)-5-(3-amino-3-methylazetidine-1-carbonyl)pyrrolidin-3-ylthio)-4-methyl-7-oxo-1-azabicyclo[3.2.0]hept-2-ene-2-carboxylic acid] | 4 (≈ 7.5 µM) | 0.125 (≈ 0.234 µM) | 2 (≈ 3.75 µM) | 4 (≈ 7.5 µM)
C[C@@H](NC(=O)Cn1cnnn1)[C@H]1C(=O)N2C(C(=O)O)=C(S[C@@H]3CN[C@H](C(=O)N4CCN([C@H]5CCNC5)CC4)C3)[C@H](C)[C@H]12 [Example 406, (4R,5S,6R)-6-((R)-1-(2-(1H-tetrazol-1-yl)acetamido)ethyl)-4-methyl-7-oxo-3-((3S,5S)-5-(4-((S)-pyrrolidin-3-yl]piperazine-1-carbonyl]pyrrolidin-3-ylthio)-1-azabicyclo[3.2.0]hept-2-ene-2-carboxylic acid] | 4 (≈ 6.64 µM) | 0.25 (≈ 0.415 µM) | 2 (≈ 3.32 µM) | 16 (≈ 26.5 µM)
C[C@@H](NC(=O)Cn1cnnn1)[C@H]1C(=O)N2C(C(=O)O)=C(SC3CNC3)[C@H](C)[C@H]12 [Example 407, (4R,5S,6R)-6-((R)-1-(2-(1H-tetrazol-1-yl)acetamido)ethyl)-3-(azetidin-3-ylthio)-4-methyl-7-oxo-1-azabicyclo[3.2.0]hept-2-ene-2-carboxylic acid] | 2 (≈ 4.91 µM) | 0.5 (≈ 1.23 µM) | 1 (≈ 2.45 µM) | 8 (≈ 19.6 µM)
C[C@@H](NC(=O)Cn1cnnn1)[C@H]1C(=O)N2C(C(=O)O)=C(S[C@@H]3CN[C@H](C(=O)N4CCN(C5CNC5)CC4)C3)[C@H](C)[C@H]12 [Example 408, (4R,5S,6R)-6-((R)-1-(2-(1H-tetrazol-1-yl)acetamido)ethyl)-3-((3S,5S)-5-(4-(azetidin-3-yl)piperazine-1-carbonyl)pyrrolidin-3-ylthio)-4-methyl-7-oxo-1-azabicyclo[3.2.0]hept-2-ene-2-carboxylic acid] | 4 (≈ 6.79 µM) | 1 (≈ 1.7 µM) | 2 (≈ 3.4 µM) | 2 (≈ 3.4 µM)
C[C@@H](NC(=O)Cn1cnnn1)[C@H]1C(=O)N2C(C(=O)O)=C(S[C@@H]3CN[C@H](C(=O)N4CCC(N5CC[C@@H](N)C5)CC4)C3)[C@H](C)[C@H]12 [Example 409, (4R,5S,6R)-6-((R)-1-(2-(1H-tetrazol-1-yl)acetamido)ethyl)-3-((3S,5S)-5-(4-((R)-3-aminopyrrolidin-1-yl)piperidine-1-carbonyl)pyrrolidin-3-ylthio)-4-methyl-7-oxo-1-azabicyclo[3.2.0]hept-2-ene-2-carboxylic acid] | 4 (≈ 6.49 µM) | 1 (≈ 1.62 µM) | 2 (≈ 3.24 µM) | 4 (≈ 6.49 µM)
C[C@@H](NC(=O)Cn1cnnn1)[C@H]1C(=O)N2C(C(=O)O)=C(S[C@@H]3CN[C@H](C(=O)N4CC[C@@H](N(C)C)C4)C3)[C@H](C)[C@H]12 [Example 410, (4R,5S,6R)-6-((R)-1-(2-(1H-tetrazol-1-yl)acetamido)ethyl)-3-((3S,5S)-5-((R)-3-(dimethylamino)pyrrolidine-1-carbonyl)pyrrolidin-3-ylthio)-4-methyl-7-oxo-1-azabicyclo[3.2.0]hept-2-ene-2-carboxylic acid] | 2 (≈ 3.56 µM) | 0.5 (≈ 0.89 µM) | 4 (≈ 7.12 µM) | 4 (≈ 7.12 µM)
C[C@@H]1C[C@H](N)CN1C(=O)[C@@H]1C[C@H](SC2=C(C(=O)O)N3C(=O)[C@H]([C@@H](C)NC(=O)Cn4cnnn4)[C@H]3[C@H]2C)CN1 [Example 411, (4R,5S,6R)-6-((R)-1-(2-(1H-tetrazol-1-yl)acetamido)ethyl)-3-((3S,5S)-5-((2R,4S)-4-amino-2-methylpyrrolidine-1-carbonyl)pyrrolidin-3-ylthio)-4-methyl-7-oxo-1-azabicyclo[3.2.0]hept-2-ene-2-carboxylic acid] | 2 (≈ 3.65 µM) | 0.25 (≈ 0.457 µM) | 1 (≈ 1.83 µM) | 1 (≈ 1.83 µM)
C[C@@H](NC(=O)Cn1cnnn1)[C@H]1C(=O)N2C(C(=O)O)=C(S[C@@H]3CN[C@H](C(=O)N4C[C@@H](N)C[C@H]4CO)C3)[C@H](C)[C@H]12 [Example 412, (4R,5S,6R)-6-((R)-1-(2-(1H-tetrazol-1-yl)acetamido)ethyl)-3-((3S,5S)-5-((2S,4S)-4-amino-2-(hydroxymethyl)pyrrolidine-1-carbonyl)pyrrolidin-3-ylthio)-4-methyl-7-oxo-1-azabicyclo[3.2.0]hept-2-ene-2-carboxylic acid] | 2 (≈ 3.55 µM) | 0.25 (≈ 0.444 µM) | 2 (≈ 3.55 µM) | 1 (≈ 1.77 µM)
C[C@@H](NC(=O)Cn1cnnn1)[C@H]1C(=O)N2C(C(=O)O)=C(S[C@@H]3CN[C@H](C(=O)N4CC(N)C(N)C4)C3)[C@H](C)[C@H]12 (stereo partly drawn) [Example 413, (4R,5S,6R)-6-((R)-1-(2-(1H-tetrazol-1-yl)acetamido)ethyl)-3-((3S,5S)-5-(3,4-diaminopyrrolidine-1-carbonyl)pyrrolidin-3-ylthio)-4-methyl-7-oxo-1-azabicyclo[3.2.0]hept-2-ene-2-carboxylic acid] | 2 (≈ 3.65 µM) | 0.25 (≈ 0.456 µM) | 2 (≈ 3.65 µM) | 2 (≈ 3.65 µM)
C[C@@H](NC(=O)Cn1cnnn1)[C@H]1C(=O)N2C(C(=O)O)=C(S[C@@H]3CN[C@H](C(=O)N4C[C@H](N)[C@@H](O)C4)C3)[C@H](C)[C@H]12 [Example 414, (4R,5S,6R)-6-((R)-1-(2-(1H-tetrazol-1-yl)acetamido)ethyl)-3-((3S,5S)-5-((3S,4S)-3-amino-4-hydroxypyrrolidine-1-carbonyl)pyrrolidin-3-ylthio)-4-methyl-7-oxo-1-azabicyclo[3.2.0]hept-2-ene-2-carboxylic acid] | 4 (≈ 7.28 µM) | 0.5 (≈ 0.91 µM) | 2 (≈ 3.64 µM) | 4 (≈ 7.28 µM)
C[C@@H](NC(=O)Cn1cnnn1)[C@H]1C(=O)N2C(C(=O)O)=C(SCCN)[C@H](C)[C@H]12 [Example 415, (4R,5S,6R)-6-((R)-1-(2-(1H-tetrazol-1-yl)acetamido)ethyl)-3-(2-aminoethylthio)-4-methyl-7-oxo-1-azabicyclo[3.2.0]hept-2-ene-2-carboxylic acid] | 4 (≈ 10.1 µM) | 2 (≈ 5.06 µM) | 1 (≈ 2.53 µM) | 16 (≈ 40.5 µM)
